Results reported in patent US20260285850A1, “SUBSTITUTED OXAZOLIDINONES AND IMIDAZOLINONES AS HERBICIDES” (FMC CORPORATION, priority 2023, published 2026).

Columns and labels:
Type in all cases: in vivo
[1] = system: barnyardgrass (Echinochloa crus-galli); test: Test A postemergence application, visual injury rating 0-100; details: Postemergence, 10 days, 0 is no effect, 100 is complete control
Outline: (§1)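 Compound in a non-phytotoxic, surfactant-containing solvent is applied either as a directed soil spray before seedlings emerge or onto emerged plants 2-10 cm tall; pots hold a loam-sand blend. Plants grow 10 days under greenhouse conditions and are rated by eye against untreated controls (0 no effect, 100 complete control).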

[2] = system: oat, wild (wild oat, Avena fatua); test: as above; details: Postemergence, 10 days, 0 is no effect, 100 is complete control
Outline: as §1

[3] = system: galium (catchweed bedstraw, Galium aparine); test: as above; details: Postemergence, 10 days, 0 is no effect, 100 is complete control
Outline: as §1

[4] = system: kochia (Bassia scoparia); test: as above; details: Postemergence, 10 days, 0 is no effect, 100 is complete control
Outline: as §1

[5] = system: green foxtail (Setaria viridis); test: as above; details: Postemergence, 10 days, 0 is no effect, 100 is complete control
Outline: as §1

[6] = system: corn (Zea mays); test: as above; details: Postemergence, 10 days, 0 is no effect, 100 is complete control
Outline: as §1

[7] = system: wheat (Triticum aestivum); test: as above; details: Postemergence, 10 days, 0 is no effect, 100 is complete control
Outline: as §1

[8] = system: soybean (Glycine max); test: as above; details: Postemergence, 10 days, 0 is no effect, 100 is complete control
Outline: as §1

[9] = system: ragweed (common ragweed, Ambrosia artemisiifolia); test: as above; details: Postemergence, 10 days, 0 is no effect, 100 is complete control
Outline: as §1

[10] = system: ryegrass, Italian (italian ryegrass, Lolium multiflorum); test: as above; details: Postemergence, 10 days, 0 is no effect, 100 is complete control
Outline: as §1

[11] = system: blackgrass (Alopecurus myosuroides); test: as above; details: Postemergence, 10 days, 0 is no effect, 100 is complete control
Outline: as §1

[12] = system: palmer (palmer amaranth, palmer pigweed, Amaranthus palmeri); test: as above; details: Postemergence, 10 days, 0 is no effect, 100 is complete control
Outline: as §1

[13] = system: horseweed (Erigeron canadensis); test: as above; details: Postemergence, 10 days, 0 is no effect, 100 is complete control
Outline: as §1

[14] = system: barnyardgrass (Echinochloa crus-galli); test: Test A preemergence soil spray, visual injury rating 0-100; details: 10 days, 0 = no effect, 100 = complete control
Outline: as §1

[15] = system: oat, wild (wild oat, Avena fatua); test: as above; details: 10 days, 0 = no effect, 100 = complete control
Outline: as §1

[16] = system: kochia (Bassia scoparia); test: as above; details: 10 days, 0 = no effect, 100 = complete control
Outline: as §1

[17] = system: green foxtail (Setaria viridis); test: as above; details: 10 days, 0 = no effect, 100 = complete control
Outline: as §1

[18] = system: corn (Zea mays); test: as above; details: 10 days, 0 = no effect, 100 = complete control
Outline: as §1

[19] = system: wheat (Triticum aestivum); test: as above; details: 10 days, 0 = no effect, 100 = complete control
Outline: as §1

[20] = system: soybean (Glycine max); test: as above; details: 10 days, 0 = no effect, 100 = complete control
Outline: as §1

[21] = system: ryegrass, Italian (italian ryegrass, Lolium multiflorum); test: as above; details: 10 days, 0 = no effect, 100 = complete control
Outline: as §1

[22] = system: blackgrass (Alopecurus myosuroides); test: as above; details: 10 days, 0 = no effect, 100 = complete control
Outline: as §1

[23] = system: palmer (palmer amaranth, palmer pigweed, Amaranthus palmeri); test: as above; details: 10 days, 0 = no effect, 100 = complete control
Outline: as §1

[24] = system: barnyardgrass (Echinochloa crusgalli); test: Test B flooded paddy test, visual plant response rating 0-100; details: 250 g ai/ha, Flood, applied to paddy water, evaluated after 13 days
Outline: (§2)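 Plants were grown to the 2-leaf stage, then pots were flooded to 3 cm above the soil and compound was applied directly to the paddy water, with that depth kept throughout.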

[25] = system: rice (Oryza sativa); test: as above; details: 250 g ai/ha, Flood, applied to paddy water, evaluated after 13 days
Outline: as §2

[26] = system: ducksalad (Heteranthera limosa); test: as above; details: 250 g ai/ha, Flood, applied to paddy water, evaluated after 13 days
Outline: as §2

[27] = system: sedge, umbrella (small-flower umbrella sedge, Cyperus difformis); test: as above; details: 250 g ai/ha, Flood, applied to paddy water, evaluated after 13 days
Outline: as §2

CC1(C(=O)NC2C=CC(C(=O)OCC#N)C2)CN(c2cc(F)cc(F)c2)C(=O)O1 (centres unmarked) [Compound 35]
95: Plant response rating, Barnyardgrass (0 to 100 scale, 0 is no effect and 100 is complete control) [24]
70: Kochia plant response rating (0 to 100 scale) ([4]; 125 g ai/ha) | Kochia plant response rating (0 to 100 scale) ([4]; 500 g ai/ha) | Wheat plant response rating (0 to 100 scale) ([7]; 125 g ai/ha) | Soybean plant response rating (0 to 100 scale) ([8]; 125 g ai/ha) | Ragweed plant response rating (0 to 100 scale) ([9]; 125 g ai/ha) | Blackgrass plant response rating (0 to 100 scale) ([22]; 125 g ai/ha)
80: Galium plant response rating (0 to 100 scale) ([3]; 125 g ai/ha) | Galium plant response rating (0 to 100 scale) ([3]; 500 g ai/ha) | Wheat plant response rating (0 to 100 scale) ([7]; 500 g ai/ha) | Ragweed plant response rating (0 to 100 scale) ([9]; 500 g ai/ha) | Amaranth, Palmer / Pigweed, Palmer plant response rating (0 to 100 scale) ([12]; 125 g ai/ha) | Horseweed plant response rating (0 to 100 scale) ([13]; 125 g ai/ha) | Soybean plant response rating (0 to 100 scale) ([20]; 125 g ai/ha)
100: Barnyardgrass plant response rating (0 to 100 scale) ([1]; 125 g ai/ha) | Barnyardgrass plant response rating (0 to 100 scale) ([1]; 500 g ai/ha) | Oat, Wild plant response rating (0 to 100 scale) ([2]; 125 g ai/ha) | Oat, Wild plant response rating (0 to 100 scale) ([2]; 500 g ai/ha) | Corn plant response rating (0 to 100 scale) ([6]; 125 g ai/ha) | Corn plant response rating (0 to 100 scale) ([6]; 500 g ai/ha) | Blackgrass plant response rating (0 to 100 scale) ([11]; 500 g ai/ha) | Amaranth, Palmer / Pigweed, Palmer plant response rating (0 to 100 scale) ([12]; 500 g ai/ha) | Barnyardgrass plant response rating (0 to 100 scale) ([14]; 125 g ai/ha) | Barnyardgrass plant response rating (0 to 100 scale) ([14]; 500 g ai/ha) | Foxtail, Green plant response rating (0 to 100 scale) ([17]; 500 g ai/ha) | Corn plant response rating (0 to 100 scale) ([18]; 500 g ai/ha) | Wheat plant response rating (0 to 100 scale) ([19]; 500 g ai/ha) | Ryegrass, Italian plant response rating (0 to 100 scale) ([21]; 125 g ai/ha) | Ryegrass, Italian plant response rating (0 to 100 scale) ([21]; 500 g ai/ha) | Amaranth, Palmer plant response rating (0 to 100 scale) ([23]; 125 g ai/ha) | Amaranth, Palmer plant response rating (0 to 100 scale) ([23]; 500 g ai/ha)
50: Plant response rating, Rice (0 to 100 scale, 0 is no effect and 100 is complete control) [25]
90: Foxtail, Green plant response rating (0 to 100 scale) ([5]; 125 g ai/ha) | Foxtail, Green plant response rating (0 to 100 scale) ([5]; 500 g ai/ha) | Soybean plant response rating (0 to 100 scale) ([8]; 500 g ai/ha) | Ryegrass, Italian plant response rating (0 to 100 scale) ([10]; 125 g ai/ha) | Ryegrass, Italian plant response rating (0 to 100 scale) ([10]; 500 g ai/ha) | Blackgrass plant response rating (0 to 100 scale) ([11]; 125 g ai/ha) | Horseweed plant response rating (0 to 100 scale) ([13]; 500 g ai/ha) | Oat, Wild plant response rating (0 to 100 scale) ([15]; 125 g ai/ha) | Oat, Wild plant response rating (0 to 100 scale) ([15]; 500 g ai/ha) | Kochia plant response rating (0 to 100 scale) ([16]; 125 g ai/ha) | Kochia plant response rating (0 to 100 scale) ([16]; 500 g ai/ha) | Foxtail, Green plant response rating (0 to 100 scale) ([17]; 125 g ai/ha) | Corn plant response rating (0 to 100 scale) ([18]; 125 g ai/ha) | Wheat plant response rating (0 to 100 scale) ([19]; 125 g ai/ha) | Soybean plant response rating (0 to 100 scale) ([20]; 500 g ai/ha) | Blackgrass plant response rating (0 to 100 scale) ([22]; 500 g ai/ha) | Plant response rating, Ducksalad (0 to 100 scale, 0 is no effect and 100 is complete control) [26] | Plant response rating, Sedge, Umbrella (0 to 100 scale, 0 is no effect and 100 is complete control) [27]
